Source: patent US8058437B2, “(Pyrroloquinoxalinyl) pyrazinecarbohydrazide-oxalic acid co-crystal for treatment of cancer and other diseases” (Novelix Pharmaceuticals, Inc., priority 2008, dated 2011)
Read-outs that look alike come from different tables or passages of the source.

Test: Pharmacokinetic experiments in rats (IV, oral suspension, oral solution)
Format: in vivo
Conditions: male, rat, plasma; for bioavailability: adjusted for dose, read-out: Bioavailability
Description: The oral suspension formulation was prepared by suspending the test article in 5% PEG-200/95% of a 0.5% solution of methylcellulose. The concentration of the test article was such that a dosing volume of 10 mL/kg delivered the intended dose level. The oral solution formulations of NVX-144 and NVX-412 were prepared by dissolving the test article in 10% by volume dimethyl acetamide, followed by 60% by volume PEG-400, and then adding slowly a solution of 30% Captisol® in 50 mM lactic acid to provide the remaining 30% of volume. The concentration of the test article was such that a dosing volume of 10 mL/kg delivered the intended dose level. The IV formulation of NVX-412 was prepared by dissolving the test article in 10% by volume dimethyl acetamide, followed by 10% by volume PEG-400, and then adding slowly a solution of 10% Captisol® in 50 mM lactic acid to provide the remaining 80% of volume. The concentration of the test articles was such that a dosing volume of 2.5 mL/kg delivered the intended dose level. The doses administered were based on the body weight of each animal taken shortly before dosing. The formulations were used immediately after preparation.
A total of 15 rats were assigned to the study. Five groups of three male rats each comprised the study. Each group was treated once by oral gavage or intravenous injection via the tail vein as specified in Table 3 below.
The animals were fasted overnight prior to dosing and the feed returned approximately 2 hours post-dosing. The dose for each animal was based on the most recent body weight. Oral doses were administered by gavage. Animals received 10 mL/kg per single oral dose. Intravenous doses were administered by tail vein injection. The dose for each animal was based on the most recent body weight. Animals were dosed at 2.5 mL/kg per single intravenous dose.
Blood was collected from the animals in Groups 1 through 5 for pharmacokinetic analysis. Approximately 0.3 mL of blood was collected in potassium EDTA tubes via the orbital plexus at four time points (30 minutes, 1 hour, 4 hours, and 8 hours post-dose) from each rat treated by the oral route, and the blood samples were processed to prepare plasma. Blood was collected at four time points (5 minutes, 30 minutes, 1 hour, and 2 hours post-dose) from each rat treated by the intravenous route, and the blood samples were processed to prepare plasma. Animals were terminated (without necropsy) following their final sample collection.
The whole blood samples were centrifuged (˜1500×g) for a minimum of 10 minutes in a refrigerated centrifuge (set at ˜5° C.). Plasma was prepared and transferred within 30 minutes of blood collection/centrifugation to appropriately labeled tubes. The tubes were then frozen and stored in the dark at ≦−70° C. until analysis. The plasma samples were analyzed by LC-MS/MS to determine the plasma concentrations of NVX-144 and NVX-412. Pharmacokinetic analysis of the plasma concentration data was conducted using non-compartmental analysis with WinNonlin Version 4.1.

[1] = iv, 5 mg/kg, IV 5 mg/kg, Mean of 3
[2] = iv, 5 mg/kg, IV 5 mg/kg, individual animals
[3] = oral, 20 mg/kg, Group 5, PO-Solution 20 mg/kg, Mean
[4] = po, 20 mg/kg, Group 3, PO-Suspension 20 mg/kg, individual animals
[5] = po, 20 mg/kg, Group 5, PO-Solution 20 mg/kg, Mean N=3

## O=C(NNc1nc2cc(F)ccc2n2cccc12)c1cnccn1.O=C(O)C(=O)O [NVX-412, N′-(7-fluoropyrrolo[1,2a]quinoxalin-4-yl)pyrazine-2-carbohydrazide oxalic acid co-crystal]
[1]
  concentration at 0.083 h: 1840 ng/mL
  concentration at 2 h: 165 ng/mL
  AUC: 1070 ng·h/mL
  AUC(0-inf): 1310 ng·h/mL
  clearance: 63.4 mL/min/kg
[2]
  concentration at 0.083 h: 1810 ng/mL
  concentration at 2 h: 167 ng/mL
  AUC: 1070 ng·h/mL
  AUC(0-inf): 1320 ng·h/mL
  clearance: 63.3 mL/min/kg
iv, 5 mg/kg, IV 5 mg/kg, 0.5 h, Mean of 3
  concentration at 0.5 h: 477 ng/mL
iv, 5 mg/kg, IV 5 mg/kg, 0.5 h, individual animals
  concentration at 0.5 h: 488 ng/mL
iv, 5 mg/kg, IV 5 mg/kg, 1 h, Mean of 3
  concentration at 1 h: 273 ng/mL
iv, 5 mg/kg, IV 5 mg/kg, 1 h, individual animals
  concentration at 1 h: 288 ng/mL
iv, 5 mg/kg, IV 5 mg/kg, Mean of 3, read-out: Cmax
  Cmax: 1840 ng/mL
iv, 5 mg/kg, IV 5 mg/kg, Mean of 3, read-out: T ½ (converted)
  half-life: 1 h
iv, 5 mg/kg, IV 5 mg/kg, Mean of 3, read-out: Tmax
  Tmax: 0.083 h
iv, 5 mg/kg, IV 5 mg/kg, Mean of 3, read-out: Vss
  Vd: 3.98 L/kg
iv, 5 mg/kg, IV 5 mg/kg, individual animals, read-out: Cmax
  Cmax: 1810 ng/mL
iv, 5 mg/kg, IV 5 mg/kg, individual animals, read-out: T ½ (converted)
  half-life: 1.01 h
iv, 5 mg/kg, IV 5 mg/kg, individual animals, read-out: Tmax
  Tmax: 0.08 h
iv, 5 mg/kg, IV 5 mg/kg, individual animals, read-out: Vss
  Vd: 3.96 L/kg
iv, 5 mg/kg, administered intravenously, range over animals, read-out: terminal plasma half-life
  half-life: 0.93 to 1.15 h
oral, 20 mg/kg, Group 3, PO-Suspension 20 mg/kg, 0.5 hr, Mean
  concentration at 0.5 h: 487 ng/mL
oral, 20 mg/kg, Group 3, PO-Suspension 20 mg/kg, 0.5 hr, individual animals
  concentration at 0.5 h: 499 ng/mL
oral, 20 mg/kg, Group 3, PO-Suspension 20 mg/kg, 1 hr, Mean
  concentration at 1 h: 525 ng/mL
oral, 20 mg/kg, Group 3, PO-Suspension 20 mg/kg, 1 hr, individual animals
  concentration at 1 h: 525 ng/mL
oral, 20 mg/kg, Group 3, PO-Suspension 20 mg/kg, Mean
  concentration at 4 h: 257 ng/mL
oral, 20 mg/kg, Group 3, PO-Suspension 20 mg/kg, individual animals
  concentration at 4 h: 341 ng/mL
oral, 20 mg/kg, Group 3, PO-Suspension 20 mg/kg, Mean, only 2 replicates available
  concentration at 8 h: 9.27 ng/mL
oral, 20 mg/kg, Group 5, PO-Solution 20 mg/kg, 0.5 hr, Mean
  concentration at 0.5 h: 626 ng/mL
oral, 20 mg/kg, Group 5, PO-Solution 20 mg/kg, 0.5 hr, individual animals
  concentration at 0.5 h: 732 ng/mL
oral, 20 mg/kg, Group 5, PO-Solution 20 mg/kg, 1 hr, Mean
  concentration at 1 h: 601 ng/mL
oral, 20 mg/kg, Group 5, PO-Solution 20 mg/kg, 1 hr, individual animals
  concentration at 1 h: 628 ng/mL
[3]
  concentration at 4 h: 243 ng/mL
  concentration at 8 h: 16.2 ng/mL
oral, 20 mg/kg, Group 5, PO-Solution 20 mg/kg, individual animals
  concentration at 4 h: 259 ng/mL
po, 20 mg/kg, Group 3, PO-Suspension 20 mg/kg, Mean N=2
  AUC(0-inf): 2310 ng·h/mL
po, 20 mg/kg, Group 3, PO-Suspension 20 mg/kg, Mean N=2, read-out: T ½ (converted)
  half-life: 1.2 h
po, 20 mg/kg, Group 3, PO-Suspension 20 mg/kg, Mean N=2, versus mean IV AUCINF
  bioavailability: 43.9%
po, 20 mg/kg, Group 3, PO-Suspension 20 mg/kg, Mean N=3
  AUC: 2070 ng·h/mL
po, 20 mg/kg, Group 3, PO-Suspension 20 mg/kg, Mean N=3, read-out: Cmax
  Cmax: 525 ng/mL
po, 20 mg/kg, Group 3, PO-Suspension 20 mg/kg, Mean N=3, read-out: Tmax
  Tmax: 1 h
[4]
  AUC: 2390 ng·h/mL
  AUC(0-inf): 2410 ng·h/mL
po, 20 mg/kg, Group 3, PO-Suspension 20 mg/kg, individual animals, read-out: Cmax
  Cmax: 525 ng/mL
po, 20 mg/kg, Group 3, PO-Suspension 20 mg/kg, individual animals, read-out: T ½ (converted)
  half-life: 1.28 h
po, 20 mg/kg, Group 3, PO-Suspension 20 mg/kg, individual animals, read-out: Tmax
  Tmax: 1 h
po, 20 mg/kg, Group 3, PO-Suspension 20 mg/kg, individual animals, versus mean IV AUCINF
  bioavailability: 45.9%
[5]
  AUC: 2250 ng·h/mL
  AUC(0-inf): 2290 ng·h/mL
po, 20 mg/kg, Group 5, PO-Solution 20 mg/kg, Mean N=3, read-out: Cmax
  Cmax: 643 ng/mL
po, 20 mg/kg, Group 5, PO-Solution 20 mg/kg, Mean N=3, read-out: T ½ (converted)
  half-life: 1.4 h
po, 20 mg/kg, Group 5, PO-Solution 20 mg/kg, Mean N=3, read-out: Tmax
  Tmax: 0.67 h
po, 20 mg/kg, Group 5, PO-Solution 20 mg/kg, Mean N=3, versus mean IV AUCINF
  bioavailability: 43.5%
